Results taken from PubChem BioAssay AID248 (DTP/NCI, 2004).
“And” between values parts separate entries of the source, which are not always exact repeats. Identical values can stand only once. Inconclusive results and toxic doses are left out. Rule as the data show it: active = T/C of 150% or more; inactive = T/C below 125%. Square brackets hold non-standard residues; d marks the D form. Peptide text beside a SMILES is read from it. * marks the point of attachment. Tos = Cc1ccc(S(=O)(=O)*)cc1; ΔPro = O=C(O)[CH]1C=CCN1

Tested on: L1210 leukemia ip in BDF1 mice, survival T/C
Experiment: NCI In Vivo Anticancer Drug Screen. Data for tumor model L1210 Leukemia (intraperitoneal) in B6D2F1 (BDF1) mice
Conditions: endpoint: mean survival time, higher = longer survival
In short: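 Transplanted-tumor mice were given test agent; controls received vehicle only. Survival readings from the two groups were divided (treated over control).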

[1] = dose: 50.0 mg/kg/injection, schedule: Q01DX009 (ip), vehicle: saline
[2] = dose: 100.0 mg/kg/injection, schedule: Q01DX009 (ip), vehicle: saline
[3] = dose: 100.0 mg/kg/injection, schedule: Q04DX003 (ip), vehicle: saline
[4] = dose: 50.0 mg/kg/injection, schedule: Q01DX005 (ip), vehicle: saline
[5] = dose: 100.0 mg/kg/injection, schedule: Q01DX005 (ip), vehicle: saline
[6] = dose: 200.0 mg/kg/injection, schedule: Q01DX005 (ip), vehicle: saline
[7] = dose: 100.0 mg/kg/injection, schedule: Q01DX009 (ip), vehicle: Klucel (hydroxypropylcellulose) (HPC)
[8] = dose: 200.0 mg/kg/injection, schedule: Q01DX009 (ip), vehicle: Klucel (hydroxypropylcellulose) (HPC)
[9] = dose: 400.0 mg/kg/injection, schedule: Q01DX009 (ip), vehicle: Klucel (hydroxypropylcellulose) (HPC)
[10] = dose: 25.0 mg/kg/injection, schedule: Q01DX009 (ip), vehicle: saline

Measured: T/C

O/C(=C\C(=S)S)c1ccc(Cl)cc1
inactive: dose: 0.06 mg/kg/injection, schedule: Q01DX009 (ip), vehicle: saline with Tween-80 103 % of control | dose: 0.12 mg/kg/injection, schedule: Q01DX009 (ip), vehicle: saline with Tween-80 105 % of control | dose: 0.25 mg/kg/injection, schedule: Q01DX009 (ip), vehicle: saline with Tween-80 98 % of control | dose: 0.5 mg/kg/injection, schedule: Q01DX009 (ip), vehicle: saline with Tween-80 112 % of control and 120 % of control | dose: 1.0 mg/kg/injection, schedule: Q01DX009 (ip), vehicle: saline with Tween-80 102 % of control and 107 % of control | dose: 1.0 mg/kg/injection, schedule: Q04DX003 (ip), vehicle: saline with Tween-80 103 % of control | dose: 2.0 mg/kg/injection, schedule: Q01DX009 (ip), vehicle: saline with Tween-80 107 % of control | dose: 2.0 mg/kg/injection, schedule: Q04DX003 (ip), vehicle: saline with Tween-80 97 % of control | dose: 4.0 mg/kg/injection, schedule: Q04DX003 (ip), vehicle: saline with Tween-80 97 % of control | dose: 8.0 mg/kg/injection, schedule: Q04DX003 (ip), vehicle: saline with Tween-80 105 % of control

NC(=O)/C=C\C(N)=O
inactive: [1] 103 % of control | dose: 50.0 mg/kg/injection, schedule: Q04DX003 (ip), vehicle: saline 100 % of control | [2] 99 % of control | [3] 104 % of control | dose: 200.0 mg/kg/injection, schedule: Q04DX003 (ip), vehicle: saline 99 % of control

Cc1nonc1-c1nc(SCC(=O)NN)n[nH]1
inactive: dose: 25.0 mg/kg/injection, schedule: Q04DX002 (ip), vehicle: Klucel (hydroxypropylcellulose) (HPC) 102 % of control | dose: 50.0 mg/kg/injection, schedule: Q04DX002 (ip), vehicle: Klucel (hydroxypropylcellulose) (HPC) 98 % of control

COC(=O)CNC(=O)C(Cc1ccc(O)cc1)NC(=O)OC(C)(C)C (centres undefined)
inactive: [4] 95 % of control | [5] 105 % of control | [6] 96 % of control | dose: 400.0 mg/kg/injection, schedule: Q01DX005 (ip), vehicle: saline 98 % of control

O=C(NNC(=S)NC1CC2C=CC1C2)c1cccnc1 (centres undefined)
inactive: [7] 111 % of control | [8] 101 % of control

Cc1cccc(C)c1N=C/C=C/c1ccccc1
inactive: [7] 100 % of control | [8] 88 % of control | [9] 102 % of control

NS(=O)(=O)c1nc[nH]c1[N+](=O)[O-]
inactive: dose: 100.0 mg/kg/injection, schedule: Q01DX009 (ip), vehicle: acetone 92 % of control | dose: 200.0 mg/kg/injection, schedule: Q01DX009 (ip), vehicle: acetone 90 % of control

CN1C(=O)NC(=O)C1c1ccccc1 (centres undefined)
inactive: dose: 100.0 mg/kg/injection, schedule: Q04DX002 (ip), vehicle: saline 117 % of control | dose: 200.0 mg/kg/injection, schedule: Q04DX002 (ip), vehicle: saline 106 % of control | dose: 400.0 mg/kg/injection, schedule: Q04DX002 (ip), vehicle: saline 106 % of control

CC(C)=CCC(C#N)(CCN(C)C)c1cccc2ccccc12 (centres undefined)
inactive: [10] 98 % of control | [1] 101 % of control | [2] 94 % of control | [3] 98 % of control

CCCC[N+](CC)(CC)CCOC(=O)C1C2CC3OC(=O)C1C3C2 (centres undefined)
inactive: [3] 101 % of control

COC(=O)C1C=CCN1C(=O)C(Cc1ccccc1)NS(=O)(=O)c1ccc(C)cc1 (stereo not drawn) (Tos-Phe-[ΔPro]-OMe; configuration not given here)
inactive: [4] 96 % of control | [5] 107 % of control | [6] 105 % of control

CCC(=O)NCC1(c2ccccc2)CCN(CCCC(=O)c2ccc(F)cc2)CC1
inactive: [10] 121 % of control | [1] 113 % of control | [2] 121 % of control

CC(=O)OC1C=CN(C(C)=O)C(SC(C)(C)C)C1OC(C)=O (centres undefined)
inactive: [7] 101 % of control | [8] 106 % of control | [9] 100 % of control

CN(C)P(N)(N)=O
inactive: [2] 101 % of control | dose: 100.0 mg/kg/injection, schedule: Q04DX003 (ip), vehicle: Klucel (hydroxypropylcellulose) (HPC) 97 % of control | dose: 200.0 mg/kg/injection, schedule: Q01DX009 (ip), vehicle: saline 97 % of control | dose: 200.0 mg/kg/injection, schedule: Q04DX003 (ip), vehicle: Klucel (hydroxypropylcellulose) (HPC) 101 % of control | dose: 400.0 mg/kg/injection, schedule: Q01DX009 (ip), vehicle: saline 103 % of control | dose: 400.0 mg/kg/injection, schedule: Q04DX003 (ip), vehicle: Klucel (hydroxypropylcellulose) (HPC) 100 % of control

CC(=O)c1ccc(Nc2ccnc3cc(Cl)ccc23)cc1
inactive: dose: 75.0 mg/kg/injection, schedule: Q01DX001 (ip), vehicle: other 109 % of control | dose: 150.0 mg/kg/injection, schedule: Q01DX001 (ip), vehicle: other 96 % of control | dose: 300.0 mg/kg/injection, schedule: Q01DX001 (ip), vehicle: other 91 % of control

O=C(Nc1ccccc1C(=O)N/N=C/c1ccccc1Cl)c1ccccc1Cl
inactive: [7] 90 % of control | [8] 103 % of control | [9] 86 % of control

CSCSCC(CO)NCc1ccccc1 (centres undefined)
inactive: [1] 110 % of control | dose: 100.0 mg/kg/injection, schedule: Q01DX001 (ip), vehicle: saline 97 % of control | [2] 104 % of control | dose: 200.0 mg/kg/injection, schedule: Q01DX001 (ip), vehicle: saline 100 % of control

COc1ccc(CC2=NCCN2)cc1
inactive: dose: 25.0 mg/kg/injection, schedule: Q04DX003 (ip), vehicle: saline with Tween-80 91 % of control | dose: 50.0 mg/kg/injection, schedule: Q04DX003 (ip), vehicle: saline with Tween-80 93 % of control | dose: 100.0 mg/kg/injection, schedule: Q04DX003 (ip), vehicle: saline with Tween-80 101 % of control and 89 % of control
